Values quoted from earlier work, collected in patent US5047532A, “Isolation and elucidation of Cephalostatins 5 and 6” (Arizona Board of Regents, acting on behalf of Arizona State …, priority 1989, dated 1991).

Test system: murine P388 lymphocytic leukemia (PS cell line)
Conditions: Pettit et al, J. Chem. Soc. Chem. Commun. 85 (1988)

SMILES: C[C@@H]1[C@]2(O[C@H]3C=C4[C@@H]5CC[C@H]6Cc7nc8c(nc7C[C@]6(C)[C@H]5C[C@@H](O)[C@]4(C)[C@]31O)C[C@@H]1CC[C@H]3C4=CC[C@@H]5[C@H](C)[C@@]6(OC[C@]45C(=O)C[C@@H]3[C@@]1(C)C8)OC(C)(C)C[C@H]6O)O[C@](C)(CO)C[C@H]2O [Cephalostatin 1]
- murine P388 lymphocytic leukemia (PS system) cell growth inhibition: cell growth inhibitor
